# In patent US9062041B2 (Bayer Intellectual Property GmbH, priority 2011, dated 2015):
# Like-named read-outs stand apart in the source and are kept apart here.
# Experiments:
# Assay type in all cases: cell-based
# [1] = target: EP4 subtype of the human PGE2 receptor (Homo sapiens, UniProt P35408); experiment: cAMP antagonism test on the human EP4 receptor (HTRF cAMP detection); settings: selectivity towards hEP4, IC50 measured by cAMP antagonism test
# Summary of the method: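 Competitive HTRF cAMP read-out (cAMP-d2 vs Eu-cryptate anti-cAMP antibody, 665/620 nm ratio) on lysed human EP4 cells. Compound (0.8 nM–16.5 μM) applied 20 min at RT before 60 min PGE2 challenge (3× solution 0.3 nM, IBMX present); 20 min lysis precedes reading.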
# [2] = target: EP2 subtype of the human PGE2 receptor (Homo sapiens, UniProt P43116); experiment: cAMP antagonism test on the human EP2 receptor (HTRF cAMP detection); settings: hEP2 receptor
# Chain of EP2 subtype of the human PGE2 receptor (P43116 whole entry): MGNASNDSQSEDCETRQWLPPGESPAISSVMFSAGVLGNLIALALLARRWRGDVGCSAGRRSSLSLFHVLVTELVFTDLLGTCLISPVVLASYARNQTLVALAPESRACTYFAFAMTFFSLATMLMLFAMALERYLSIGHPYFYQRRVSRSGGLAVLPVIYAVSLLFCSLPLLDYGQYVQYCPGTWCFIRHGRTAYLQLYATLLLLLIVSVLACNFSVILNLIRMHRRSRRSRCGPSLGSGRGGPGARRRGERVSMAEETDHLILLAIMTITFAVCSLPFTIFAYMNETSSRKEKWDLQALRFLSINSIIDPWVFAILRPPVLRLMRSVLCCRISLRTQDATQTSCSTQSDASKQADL
# Summary of the method: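 Read-out is a competitive HTRF for cAMP: lysate cAMP displaces cAMP-d2 from Eu cryptate-labelled antibody, and antagonism raises the 665/620 nm ratio. Compound (0.8 nM–16.5 μM) added to EP2 cells 20 min at RT before 60 min PGE2 challenge (3× stock 1.5 nM) with IBMX, followed by 20 min lysis.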
# human PGD receptor = target: T1, human PGD receptor (Homo sapiens, UniProt Q13258); experiment: cAMP antagonism test on the human prostaglandin D receptor (HTRF cAMP detection); settings: selectivity towards hDP, IC50 measured by cAMP antagonism test
# T1 sequence (Q13258 1-359): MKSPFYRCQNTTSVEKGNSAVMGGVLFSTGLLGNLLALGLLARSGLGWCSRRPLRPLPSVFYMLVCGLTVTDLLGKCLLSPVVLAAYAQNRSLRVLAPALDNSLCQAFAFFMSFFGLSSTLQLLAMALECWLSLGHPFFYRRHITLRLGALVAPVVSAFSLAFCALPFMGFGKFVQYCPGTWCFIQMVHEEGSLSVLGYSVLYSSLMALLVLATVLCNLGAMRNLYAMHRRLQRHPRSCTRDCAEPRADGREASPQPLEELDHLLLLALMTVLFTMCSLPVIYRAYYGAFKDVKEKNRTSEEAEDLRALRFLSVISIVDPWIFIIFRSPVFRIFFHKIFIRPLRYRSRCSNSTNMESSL
# Summary of the method: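 HTRF competition read-out (665/620 nm ratio ×10000), where higher FRET means less cAMP, i.e. antagonism. Compounds (0.8 nM–16.5 μM) were preincubated 20 min at RT with cells and cAMP-d2, PGD2 (3× solution, 6 nM) in IBMX-containing PBS added for 30 min at RT, then cells lysed 20 min.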
# Chain of EP4 subtype of the human PGE2 receptor (P35408 whole entry): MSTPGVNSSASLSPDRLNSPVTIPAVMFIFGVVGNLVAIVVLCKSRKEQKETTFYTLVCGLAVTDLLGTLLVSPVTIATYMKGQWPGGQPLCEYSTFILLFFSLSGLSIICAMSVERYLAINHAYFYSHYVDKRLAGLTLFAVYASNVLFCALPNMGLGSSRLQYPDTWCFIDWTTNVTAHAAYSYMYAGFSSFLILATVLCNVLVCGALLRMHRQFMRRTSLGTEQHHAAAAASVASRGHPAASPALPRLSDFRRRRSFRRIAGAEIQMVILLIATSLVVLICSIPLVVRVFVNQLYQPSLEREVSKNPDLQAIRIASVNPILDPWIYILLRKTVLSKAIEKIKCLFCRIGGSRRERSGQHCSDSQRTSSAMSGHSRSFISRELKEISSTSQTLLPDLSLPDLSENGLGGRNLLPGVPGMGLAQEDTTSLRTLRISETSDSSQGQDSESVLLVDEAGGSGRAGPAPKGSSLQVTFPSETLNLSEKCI
Selectivity hEP2/hEP4 [1],IC50 ([2]; read-out: Antagonism hEP2 IC50),Selectivity hEP2/hDP (human PGD receptor),IC50 ([2]; read-out: IC50),SMILES
xxx (xxx > 100),17.8 nM,xxx (xxx > 100),–,"COCCNC(=O)c1ccc2nn(CC3CN(C(=O)c4ccc(Cl)cc4)C3)cc2c1C [Example 117, 2-{[1-(4-chlorobenzoyl)azetidin-3-yl]methyl}-N-(2-methoxyethyl)-4-methyl-2H-indazol-5-carboxamide]"
xxx (xxx > 100),65.5 nM,xxx (xxx > 100),–,"Cc1c(C(=O)NCC(F)(F)F)ccc2nn(CC3CCN(C(=O)c4ccc(Oc5ccc(F)cc5)cc4)CC3)cc12 [Example 283, 2-({1-[4-(4-fluorophenoxy)benzoyl]piperidin-4-yl}methyl)-4-methyl-N-(2,2,2-trifluoroethyl)-2H-indazol-5-carboxamide]"
xxx (xxx > 100),3.44 nM,xxx (xxx > 100),3.4 nM,"COCCNC(=O)c1ccc2nn(CC3CCN(C(=O)c4ccc(Oc5ccc(C(F)(F)F)cc5)cc4)CC3)cc2c1C [Example 17, N-(2-methoxyethyl)-4-methyl-2-[(1-{4-[4-(trifluoromethyl)-phenoxy]benzoyl}-piperidin-4-yl)-methyl]-2H-indazol-5-carboxamide]"
xxx (xxx > 100),4.75 nM,xxx (xxx > 100),–,"COCCNC(=O)c1ccc2nn(CC3CCN(C(=O)c4ccc(-c5ccc(F)cc5)cc4F)CC3)cc2c1C [Example 42, 2-({1-[(3,4′-difluoro-biphenyl-4-yl)-carbonyl]piperidin-4-yl}methyl)-N-(2-methoxyethyl)-4-methyl-2H-indazol-5-carboxamide]"
